From PubChem BioAssay (NCI)
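In this assay, cells in 96-well plates receive the compound at five concentrations for 48 hours. Endpoints are linearly interpolated between the surrounding concentrations. TGI: concentration producing complete growth inhibition.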

What was measured:
Test in all cases: DTP human tumour cell line panel, 48 h
NCI-H522 lung = system: NCI-H522 lung
SK-MEL-2 melanoma = system: SK-MEL-2 melanoma
UACC-62 melanoma = system: UACC-62 melanoma
DU-145 prostate = system: DU-145 prostate
CAKI-1 renal = system: CAKI-1 renal
TK-10 renal = system: TK-10 renal
COLO 205 colon = system: COLO 205 colon
SN12C renal = system: SN12C renal
MDA-MB-435 = system: MDA-MB-435
OVCAR-4 ovarian = system: OVCAR-4 ovarian
UACC-257 melanoma = system: UACC-257 melanoma
NCI-H460 lung = system: NCI-H460 lung
SF-295 CNS = system: SF-295 CNS
RXF 393 renal = system: RXF 393 renal
OVCAR-3 ovarian = system: OVCAR-3 ovarian
HL-60(TB) leukemia = system: HL-60(TB) leukemia
HCT-116 colon = system: HCT-116 colon
786-0 renal = system: 786-0 renal
SK-MEL-28 melanoma = system: SK-MEL-28 melanoma
SK-OV-3 ovarian = system: SK-OV-3 ovarian
SNB-75 CNS = system: SNB-75 CNS
MDA-N = system: MDA-N
UO-31 renal = system: UO-31 renal
NCI/ADR-RES ovarian = system: NCI/ADR-RES ovarian
BT-549 breast = system: BT-549 breast
ACHN renal = system: ACHN renal
IGROV1 ovarian = system: IGROV1 ovarian
HOP-62 NSCLC = system: HOP-62 NSCLC
OVCAR-5 ovarian = system: OVCAR-5 ovarian
SF-539 CNS = system: SF-539 CNS
NCI-H226 lung = system: NCI-H226 lung
CCRF-CEM leukemia = system: CCRF-CEM leukemia
SK-MEL-5 melanoma = system: SK-MEL-5 melanoma
MOLT-4 leukemia = system: MOLT-4 leukemia
HOP-92 NSCLC = system: HOP-92 NSCLC
HCT-15 colon = system: HCT-15 colon
HS 578T breast = system: HS 578T breast
SF-268 CNS = system: SF-268 CNS
OVCAR-8 ovarian = system: OVCAR-8 ovarian
PC-3 prostate = system: PC-3 prostate
NCI-H23 lung = system: NCI-H23 lung
MDA-MB-231 breast = system: MDA-MB-231 breast
M14 melanoma = system: M14 melanoma
HT29 colon = system: HT29 colon
HCC-2998 colon = system: HCC-2998 colon
LOX IMVI melanoma = system: LOX IMVI melanoma
EKVX NSCLC = system: EKVX NSCLC
SNB-19 CNS = system: SNB-19 CNS
SW-620 colon = system: SW-620 colon
KM12 colon = system: KM12 colon
U251 CNS = system: U251 CNS
A549 NSCLC = system: A549 NSCLC
MCF7 breast = system: MCF7 breast
SR leukemia = system: SR leukemia
MALME-3M melanoma = system: MALME-3M melanoma
K-562 leukemia = system: K-562 leukemia
RPMI-8226 leukemia = system: RPMI-8226 leukemia
A498 renal = system: A498 renal

COc1cccc(CC2C(=O)N=C(NC(C)=O)N2C)c1OC(C)=O (stereo not given)
TGI (NCI-H522 lung): > 100 µM
TGI (SK-MEL-2 melanoma): > 100 µM
TGI (UACC-62 melanoma): > 100 µM
TGI (DU-145 prostate): > 100 µM
TGI (CAKI-1 renal): > 100 µM
TGI (TK-10 renal): > 100 µM
TGI (COLO 205 colon): > 100 µM
TGI (SN12C renal): > 100 µM
TGI (MDA-MB-435): > 100 µM
TGI (OVCAR-4 ovarian): > 100 µM
TGI (UACC-257 melanoma): > 100 µM
TGI (NCI-H460 lung): > 100 µM
TGI (SF-295 CNS): > 100 µM
TGI (RXF 393 renal): > 100 µM
TGI (OVCAR-3 ovarian): > 100 µM
TGI (HL-60(TB) leukemia): > 100 µM
TGI (HCT-116 colon): > 100 µM
TGI (786-0 renal): > 100 µM
TGI (SK-MEL-28 melanoma): > 100 µM
TGI (SK-OV-3 ovarian): > 100 µM
TGI (SNB-75 CNS): > 100 µM
TGI (MDA-N): > 100 µM
TGI (UO-31 renal): > 100 µM
TGI (NCI/ADR-RES ovarian): > 100 µM
TGI (BT-549 breast): > 100 µM
TGI (ACHN renal): > 100 µM
TGI (IGROV1 ovarian): > 100 µM
TGI (HOP-62 NSCLC): > 100 µM
TGI (OVCAR-5 ovarian): > 100 µM
TGI (SF-539 CNS): > 100 µM
TGI (NCI-H226 lung): > 100 µM
TGI (CCRF-CEM leukemia): > 100 µM
TGI (SK-MEL-5 melanoma): > 100 µM
TGI (MOLT-4 leukemia): > 100 µM
TGI (HOP-92 NSCLC): > 100 µM
TGI (HCT-15 colon): > 100 µM
TGI (HS 578T breast): > 100 µM
TGI (SF-268 CNS): > 100 µM
TGI (OVCAR-8 ovarian): > 100 µM
TGI (PC-3 prostate): > 100 µM
TGI (NCI-H23 lung): > 100 µM
TGI (MDA-MB-231 breast): > 100 µM
TGI (M14 melanoma): > 100 µM
TGI (HT29 colon): > 100 µM
TGI (HCC-2998 colon): > 100 µM
TGI (LOX IMVI melanoma): > 100 µM
TGI (EKVX NSCLC): > 100 µM
TGI (SNB-19 CNS): > 100 µM
TGI (SW-620 colon): > 100 µM
TGI (KM12 colon): > 100 µM
TGI (U251 CNS): > 100 µM
TGI (A549 NSCLC): > 100 µM
TGI (MCF7 breast): > 100 µM

COC(=O)Cc1c(C(=O)CC(C)(C)n2cnc(CCN3C(=O)CCC3=O)c2)[nH]c2ccccc12
TGI (NCI-H522 lung): > 100 µM
TGI (SR leukemia): > 100 µM
TGI (SK-MEL-2 melanoma): > 100 µM
TGI (UACC-62 melanoma): > 100 µM
TGI (DU-145 prostate): > 100 µM
TGI (CAKI-1 renal): > 100 µM
TGI (TK-10 renal): > 100 µM
TGI (COLO 205 colon): > 100 µM
TGI (SN12C renal): > 100 µM
TGI (MDA-MB-435): > 100 µM
TGI (OVCAR-4 ovarian): > 100 µM
TGI (UACC-257 melanoma): > 100 µM
TGI (NCI-H460 lung): > 100 µM
TGI (SF-295 CNS): > 100 µM
TGI (RXF 393 renal): 96 µM
TGI (OVCAR-3 ovarian): > 100 µM
TGI (HCT-116 colon): > 100 µM
TGI (786-0 renal): > 100 µM
TGI (SK-MEL-28 melanoma): > 100 µM
TGI (SK-OV-3 ovarian): > 100 µM
TGI (SNB-75 CNS): > 100 µM
TGI (MDA-N): > 100 µM
TGI (UO-31 renal): > 100 µM
TGI (NCI/ADR-RES ovarian): > 100 µM
TGI (BT-549 breast): > 100 µM
TGI (ACHN renal): > 100 µM
TGI (IGROV1 ovarian): > 100 µM
TGI (OVCAR-5 ovarian): > 100 µM
TGI (SF-539 CNS): > 100 µM
TGI (NCI-H226 lung): > 100 µM
TGI (CCRF-CEM leukemia): > 100 µM
TGI (SK-MEL-5 melanoma): > 100 µM
TGI (MALME-3M melanoma): > 100 µM
TGI (MOLT-4 leukemia): > 100 µM
TGI (HOP-92 NSCLC): > 100 µM
TGI (HCT-15 colon): > 100 µM
TGI (HS 578T breast): > 100 µM
TGI (SF-268 CNS): > 100 µM
TGI (OVCAR-8 ovarian): > 100 µM
TGI (PC-3 prostate): > 100 µM
TGI (NCI-H23 lung): > 100 µM
TGI (MDA-MB-231 breast): > 100 µM
TGI (M14 melanoma): > 100 µM
TGI (HT29 colon): > 100 µM
TGI (LOX IMVI melanoma): > 100 µM
TGI (K-562 leukemia): > 100 µM
TGI (EKVX NSCLC): > 100 µM
TGI (SNB-19 CNS): > 100 µM
TGI (SW-620 colon): > 100 µM
TGI (KM12 colon): > 100 µM
TGI (U251 CNS): > 100 µM
TGI (A549 NSCLC): > 100 µM
TGI (MCF7 breast): > 100 µM

COc1cc(C2S/C(=C/c3ccccc3)C(=O)N2c2cccc(Cl)c2)cc(OC)c1OC (stereo not given)
TGI (NCI-H522 lung): 41.7 µM
TGI (RPMI-8226 leukemia): > 100 µM
TGI (SR leukemia): 83.3 µM
TGI (SK-MEL-2 melanoma): > 100 µM
TGI (UACC-62 melanoma): > 100 µM
TGI (DU-145 prostate): 86.8 µM
TGI (CAKI-1 renal): > 100 µM
TGI (TK-10 renal): > 100 µM
TGI (COLO 205 colon): > 100 µM
TGI (SN12C renal): > 100 µM
TGI (MDA-MB-435): 57.8 µM
TGI (OVCAR-4 ovarian): > 100 µM
TGI (UACC-257 melanoma): 81.8 µM
TGI (NCI-H460 lung): > 100 µM
TGI (SF-295 CNS): > 100 µM
TGI (A498 renal): > 100 µM
TGI (OVCAR-3 ovarian): > 100 µM
TGI (HL-60(TB) leukemia): > 100 µM
TGI (HCT-116 colon): > 100 µM
TGI (786-0 renal): > 100 µM
TGI (SK-MEL-28 melanoma): > 100 µM
TGI (SK-OV-3 ovarian): > 100 µM
TGI (MDA-N): > 100 µM
TGI (UO-31 renal): > 100 µM
TGI (NCI/ADR-RES ovarian): > 100 µM
TGI (BT-549 breast): 68.4 µM
TGI (ACHN renal): > 100 µM
TGI (IGROV1 ovarian): > 100 µM
TGI (OVCAR-5 ovarian): > 100 µM
TGI (SF-539 CNS): > 100 µM
TGI (NCI-H226 lung): > 100 µM
TGI (CCRF-CEM leukemia): 73.4 µM
TGI (SK-MEL-5 melanoma): > 100 µM
TGI (MOLT-4 leukemia): > 100 µM
TGI (HOP-92 NSCLC): > 100 µM
TGI (HCT-15 colon): > 100 µM
TGI (HS 578T breast): > 100 µM
TGI (SF-268 CNS): > 100 µM
TGI (OVCAR-8 ovarian): > 100 µM
TGI (PC-3 prostate): > 100 µM
TGI (NCI-H23 lung): > 100 µM
TGI (MDA-MB-231 breast): > 100 µM
TGI (M14 melanoma): > 100 µM
TGI (HT29 colon): > 100 µM
TGI (HCC-2998 colon): > 100 µM
TGI (LOX IMVI melanoma): 55.1 µM
TGI (K-562 leukemia): > 100 µM
TGI (EKVX NSCLC): > 100 µM
TGI (SNB-19 CNS): > 100 µM
TGI (SW-620 colon): > 100 µM
TGI (KM12 colon): > 100 µM
TGI (U251 CNS): > 100 µM
TGI (A549 NSCLC): > 100 µM
TGI (MCF7 breast): > 100 µM
